Measurements published in US20240335373A1, “Methods, Systems and Devices for Post-Fabrication Drug Loading” (THE UNIVERSITY OF NORTH CAROLINA AT CHAPEL HILL, priority 2020, published 2024).
Converted amounts (≈) assume the structure as drawn. Values belong to the compound of their own block, whether it stands above or below them.

How the values were obtained:
[1] = cited from earlier work
[2] = Drug loading of post-loaded SIL 30 diffusion blocks, solvent extraction and HPLC; assay type: physicochemical; details: for Drug Loading / Wt. % Loading: loaded 5 mg/mL in acetone 24 hr
Experimental: Loading. […] . Solutions of 5 mg/mL of drug in acetone were prepared and validated via HPLC. […] Blocks were then divided into an extraction set and a release set.
Extraction. Drug-loaded blocks were extracted using methods previously described in Section 2.6 using acetone as the extraction solvent. Aliquots were collected and analyzed with HPLC. Weight percent loading was determined as the total drug extracted relative to the mass of the dried blocks.
Block types 6.0 and 7.6 mm (n=8 of each type) were fabricated in SIL 30. A solution containing 8.562 mg/mL of 4′-ethynyl-2-fluoro-2′-deoxyadenosine (EFdA) in acetone was prepared and validated via HPLC. Blocks were batch immersed in post-loading solution for up to 24 hr. Blocks were divided into extraction (n=4) and release (n=4) sets. EFdA was extracted from blocks in acetone as previously described and quantified with HPLC. Release blocks were individually immersed in 60 mL of SVF and placed in an incubator at 37° C. Aliquots and analysis were completed using methods previously described. EFdA was quantified with HPLC, eluting at 5.31 min at 265 nm.
A test part described as a diffusion block with dimensions in X, Y, and Z of 10 mm, 20 mm, and 4 mm, respectively, was primarily used. The general flow of the post-loading process is outlined in FIG. 6A. The initial metrics of dimensional and mass measurements were taken for every block used prior to loading or testing. The block was then immersed in a post-loading solution containing a known concentration of the API for a specified duration. The part was removed and measured for swollen metrics. An aliquot of the post-loading solution following part removal was taken for HPLC analysis. The part was then dried in an oven to remove the post-loading solvent, after which the part was measured for dried metrics. These metrics serve as check points to precisely investigate part behavior throughout the post-loading process, specifically dimensional deformations. Once the part was post-loaded it can either be tested for total drug content via an extraction process, outlined in FIG. 6B, or tested for drug release in simulated vaginal fluid (SVF), outlined in FIG. 6C. Aliquots from both processes are taken for HPLC analysis.
. For these samples, metrics were taken and aliquots were analyzed via HPLC on a C18 column with an optimized method. Extraction aliquots and post-loading solution aliquots were diluted in acetonitrile (ACN) at 1:100 while release samples were analyzed as is. Extracted material includes both the incorporated drug (β-estradiol) as well as leachables/extractables. […] .
Blocks were further assessed by quantifying the extracted drug via HPLC. The total amount of drug extracted, weight percent loading and loading efficiency were calculated and averaged, with variation described by % RSD. Overall, a slight decrease in loading metrics was observed as a function of loading order. However, once averaged out, these values yielded minimal variability. Additionally, values shown are in-line with those obtained during the reproducibility study (Section 3.2) for methanol.
Both pre-loaded and post-loaded blocks were extracted in 20 mL of EtOH for 72 hours. Aliquots were taken and analyzed via HPLC. […] . […] Therefore, for the sake of consistency between previous results and subsequently prepared samples, loading values obtained in Round II were used for all calculations.

[3] = In vitro release from drug-loaded blocks or ring sections in simulated vaginal fluid (SVF); assay type: physicochemical; details: for Drug Release at Zero Order Mass/Day / Drug Release at Zero Order Percent/Day: linear regression from Day 2
[4] = physchem; details: organic solvent or mixture
[5] = In vivo PK of EFdA-loaded IVRs in macaques; details: female pigtailed macaques, 28 days
Experimental: Macaque size (25 mm OD) 3D printed IVRs post-loaded with EFdA at 45 mg/IVR or 62 mg/IVR were administered to female pigtailed macaques and plasma, PBMCs, vagina and rectal fluids, and vaginal and rectal biopsies were collected over 28 days and analyzed for EFdA concentration and EFdA-TP (triphosphorilated EFdA, EFdA-TP) in PBMCs.

[6] = SIL 30 block 6.29 ± 0.04 mm, 5 mg/mL in acetone
[7] = SIL 30 block 6.29 ± 0.04 mm, 5 mg/mL in acetone 24 hr
[8] = SIL 30 block 7.81 ± 0.08 mm, 5 mg/mL in acetone
[9] = SIL 30 block 7.81 ± 0.08 mm, 5 mg/mL in acetone 24 hr
[10] = SIL 30 block 6.21 ± 0.03 mm, 8.562 mg/mL in acetone
[11] = SIL 30 block 6.21 ± 0.03 mm, 8.562 mg/mL in acetone up to 24 hr
[12] = SIL 30 block 7.62 ± 0.03 mm, 8.562 mg/mL in acetone
[13] = SIL 30 block 7.62 ± 0.03 mm, 8.562 mg/mL in acetone up to 24 hr

Structure (SMILES): C[C@]12CC[C@@H]3c4ccc(O)cc4CC[C@H]3[C@@H]1CC[C@@H]2O [β-Estradiol, β-estradiol]
log p [1]: 3.75

Normalized Delta SSA [2, 6]: −91.19 ± 7.35 | Normalized Wt. % by S-SSA [2, 6]: 47.53 ± 3.10 | Drug [2, 7]: 18.95 ± 1.28 mg | Loading [2, 7]: 1.43 ± 0.10 Wt. % | Normalized Delta SSA [2, 8]: −103.29 ± 2.04 | Normalized Wt. % by S-SSA [2, 8]: 52.82 ± 1.47 | Drug [2, 9]: 19.38 ± 0.54 mg | Loading [2, 9]: 1.19 ± 0.03 Wt. % | Drug Loading ([2]; block 0.65 ± 0.01 mm): 2.07 ± 0.06 mg | Wt. % Loading ([2]; block 0.65 ± 0.01 mm): 1.71 ± 0.07 Wt. % | Drug Loading ([2]; block 1.51 ± 0.01 mm): 4.07 ± 0.19 mg | Wt. % Loading ([2]; block 1.51 ± 0.01 mm): 1.60 ± 0.07 Wt. % | Drug Loading ([2]; block 2.32 ± 0.02 mm): 6.46 ± 0.17 mg | Wt. % Loading ([2]; block 2.32 ± 0.02 mm): 1.46 ± 0.04 Wt. % | Drug Loading ([2]; block 3.26 ± 0.03 mm): 9.68 ± 0.70 mg | Wt. % Loading ([2]; block 3.26 ± 0.03 mm): 1.52 ± 0.11 Wt. % | Drug Loading ([2]; block 4.28 ± 0.04 mm): 14.42 ± 1.21 mg | Wt. % Loading ([2]; block 4.28 ± 0.04 mm): 1.62 ± 0.14 Wt. % | Drug Loading ([2]; block 6.29 ± 0.04 mm): 18.95 ± 1.28 mg | Wt. % Loading ([2]; block 6.29 ± 0.04 mm): 1.43 ± 0.10 Wt. % | Drug Loading ([2]; block 7.81 ± 0.08 mm): 19.38 ± 0.54 mg | Wt. % Loading ([2]; block 7.81 ± 0.08 mm): 1.19 ± 0.03 Wt. % | Drug Release at Zero Order Mass/Day ([3]; block 2.32 ± 0.02 mm, SVF): 406.25 ± 19.80 µg/day | Drug Release at Zero Order Percent/Day ([3]; block 2.32 ± 0.02 mm, SVF): 6.40 ± 0.20 Percent/Day | Drug Release at Zero Order Mass/Day ([3]; block 3.26 ± 0.03 mm, SVF): 423.43 ± 17.17 µg/day | Drug Release at Zero Order Percent/Day ([3]; block 3.26 ± 0.03 mm, SVF): 3.94 ± 0.06 Percent/Day | Drug Release at Zero Order Mass/Day ([3]; block 4.28 ± 0.04 mm, SVF): 450.51 ± 16.45 µg/day | Drug Release at Zero Order Percent/Day ([3]; block 4.28 ± 0.04 mm, SVF): 2.93 ± 0.03 Percent/Day | Drug Release at Zero Order Mass/Day ([3]; block 6.29 ± 0.04 mm, SVF): 453.56 ± 20.13 µg/day | Drug Release at Zero Order Percent/Day ([3]; block 6.29 ± 0.04 mm, SVF): 2.26 ± 0.01 Percent/Day | Drug Release at Zero Order Mass/Day ([3]; block 7.81 ± 0.08 mm, SVF): 454.52 ± 20.34 µg/day | Drug Release at Zero Order Percent/Day ([3]; block 7.81 ± 0.08 mm, SVF): 1.86 ± 0.04 Percent/Day | percent burst release normalized by SSA ([3]; post-loaded SIL 30 blocks, all block distances, normalized by placebo SSA in SVF): around 40% | percent burst release plateau ([3]; post-loaded SIL 30 blocks, larger block distances, SVF, first 24 hrs): 22% | solubility [4]: 9500 µg/mL (≈ 35.3 mM)
Structure (SMILES): Nc1nc(F)nc2c1ncn2[C@H]1C[C@H](O)[C@@H](CO)O1 [FdA, 2-fluoro-2′-deoxyadenosine]
release profile ([3]; all post-loaded SIL 30 block types, SVF): linear and sustained release following an initial burst | log p [1]: −0.57

Normalized Delta SSA [2, 10]: −150.63 ± 4.00 | Normalized Wt. % by S-SSA [2, 10]: 81.4 ± 2.26 | Drug [2, 11]: 32.76 ± 0.76 mg | Loading [2, 11]: 2.41 ± 0.06 Wt. % | Normalized Delta SSA [2, 12]: −195.95 ± 4.41 | Normalized Wt. % by S-SSA [2, 12]: 99.91 ± 3.67 | Drug [2, 13]: 36.91 ± 1.18 mg | Loading [2, 13]: 2.15 ± 0.07 Wt. % | EFdA levels in tissue and fluid samples ([5]; 45 mg/IVR or 62 mg/IVR): above the known efficacious levels | EFdA-TP levels in PBMCs ([5]; 45 mg/IVR or 62 mg/IVR): above the known efficacious levels | PK levels ([5]; 62 mg vs 45 mg EFdA IVR): dose dependent
Structure (SMILES): C#C[C@]1(CO)O[C@@H](n2cnc3c(N)nc(F)nc32)C[C@@H]1O [EFdA, 4′-ethynyl-2-fluoro-2′-deoxyadenosine]
